Laboratory results as given in patent US20210045385A1, “PYRIDAZINONE-SUBSTITUTED KETOXIMES AS HERBICIDES” (FMC Corporation, priority 2018, published 2021).

Columns and labels:
Assay type in all cases: in vivo
[1] = system: foxtail, giant (giant foxtail, Setaria faberii); assay: Test A preemergence, visual plant response rating; conditions: for Foxtail, Giant plant response rating: 125 g ai/ha, preemergence, 0 to 100 scale, 0 no effect, 100 complete control; for Foxtail, Giant plant response rating (0 to 100 scale): 500 g ai/ha Preemergence, approx. 10 days
Outline: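 Ratings use a 0–100 visual scale (100 = complete control) against untreated controls, scored about 10 days after greenhouse treatment. Test chemicals were formulated in surfactant-containing non-phytotoxic solvent and applied either as soil spray after planting (preemergence) or onto one- to two-leaf, 2–10 cm plants (postemergence).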

[2] = system: pigweed (Amaranthus retroflexus); assay: Test A preemergence, visual plant response rating; conditions: for Pigweed plant response rating: 125 g ai/ha, preemergence, 0 to 100 scale, 0 no effect, 100 complete control; for Pigweed plant response rating (0 to 100 scale): 500 g ai/ha Preemergence, approx. 10 days
Outline: (§1)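 Greenhouse evaluation, approx. 10 days post-spray. Soil: loam + sand. Postemergence stage: 1–2 leaves, height 2–10 cm. Vehicle: non-phytotoxic solvent blend with surfactant. Score: visual injury on a 0 (no effect) to 100 (complete control) scale.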

kochia (Kochia scoparia) [3] = assay: Test A preemergence, visual plant response rating; conditions: for Kochia plant response rating: 125 g ai/ha, preemergence, 0 to 100 scale, 0 no effect, 100 complete control; for Kochia plant response rating (0 to 100 scale): 500 g ai/ha Preemergence, approx. 10 days
Outline: as §1

[4] = system: Italian ryegrass (Lolium multiflorum); assay: Test A preemergence, visual plant response rating; conditions: for Ryegrass, Italian plant response rating: 125 g ai/ha, preemergence, 0 to 100 scale, 0 no effect, 100 complete control; for Ryegrass, Italian plant response rating (0 to 100 scale): 500 g ai/ha Preemergence, approx. 10 days
Outline: as §1

[5] = system: ragweed (common ragweed, Ambrosia elatior); assay: Test A preemergence, visual plant response rating; conditions: for Ragweed plant response rating: 125 g ai/ha, preemergence, 0 to 100 scale, 0 no effect, 100 complete control; for Ragweed plant response rating (0 to 100 scale): 500 g ai/ha Preemergence, approx. 10 days
Outline: as §1

[6] = system: barnyardgrass (Echinochloa crus-galli); assay: Test A preemergence, visual plant response rating; conditions: for Barnyardgrass plant response rating: 125 g ai/ha, preemergence, 0 to 100 scale, 0 no effect, 100 complete control; for Barnyardgrass plant response rating (0 to 100 scale): 500 g ai/ha Preemergence, approx. 10 days
Outline: as §1

[7] = system: foxtail, giant (giant foxtail, Setaria faberii); assay: Test A postemergence, visual plant response rating; conditions: for Foxtail, Giant plant response rating (0 to 100 scale): 500 g ai/ha, postemergence, 0 is no effect, 100 is complete control; for Foxtail, Giant plant response rating: Postemergence, 125 g ai/ha, 0 to 100 scale (0 no effect, 100 complete control)
Outline: as §1

[8] = system: galium (catchweed bedstraw, Galium aparine); assay: Test A postemergence, visual plant response rating; conditions: for Galium plant response rating (0 to 100 scale): 500 g ai/ha, postemergence, 0 is no effect, 100 is complete control; for Galium plant response rating: Postemergence, 125 g ai/ha, 0 to 100 scale (0 no effect, 100 complete control)
Outline: as §1

[9] = system: pigweed (Amaranthus retroflexus); assay: Test A postemergence, visual plant response rating; conditions: for Pigweed plant response rating (0 to 100 scale): 500 g ai/ha, postemergence, 0 is no effect, 100 is complete control; for Pigweed plant response rating: Postemergence, 125 g ai/ha, 0 to 100 scale (0 no effect, 100 complete control)
Outline: as §1

[10] = system: blackgrass (Alopecurus myosuroides); assay: Test A postemergence, visual plant response rating; conditions: for Blackgrass plant response rating (0 to 100 scale): 500 g ai/ha, postemergence, 0 is no effect, 100 is complete control; for Blackgrass plant response rating: Postemergence, 125 g ai/ha, 0 to 100 scale (0 no effect, 100 complete control)
Outline: as §1

kochia (Kochia scoparia) [11] = assay: Test A postemergence, visual plant response rating; conditions: for Kochia plant response rating (0 to 100 scale): 500 g ai/ha, postemergence, 0 is no effect, 100 is complete control; for Kochia plant response rating: Postemergence, 125 g ai/ha, 0 to 100 scale (0 no effect, 100 complete control)
Outline: as §1

[12] = system: Italian ryegrass (Lolium multiflorum); assay: Test A postemergence, visual plant response rating; conditions: for Ryegrass, Italian plant response rating (0 to 100 scale): 500 g ai/ha, postemergence, 0 is no effect, 100 is complete control; for Ryegrass, Italian plant response rating: Postemergence, 125 g ai/ha, 0 to 100 scale (0 no effect, 100 complete control)
Outline: as §1

corn (Zea mays) = assay: Test A postemergence, visual plant response rating; conditions: for Corn plant response rating (0 to 100 scale): 500 g ai/ha, postemergence, 0 is no effect, 100 is complete control; for Corn plant response rating: Postemergence, 125 g ai/ha, 0 to 100 scale (0 no effect, 100 complete control)
Outline: as §1

[13] = system: ragweed (common ragweed, Ambrosia elatior); assay: Test A postemergence, visual plant response rating; conditions: for Ragweed plant response rating (0 to 100 scale): 500 g ai/ha, postemergence, 0 is no effect, 100 is complete control; for Ragweed plant response rating: Postemergence, 125 g ai/ha, 0 to 100 scale (0 no effect, 100 complete control)
Outline: as §1

[14] = system: wheat (Triticum aestivum); assay: Test A postemergence, visual plant response rating; conditions: for Wheat plant response rating (0 to 100 scale): 500 g ai/ha, postemergence, 0 is no effect, 100 is complete control; for Wheat plant response rating: Postemergence, 125 g ai/ha, 0 to 100 scale (0 no effect, 100 complete control)
Outline: as §1

[15] = system: barnyardgrass (Echinochloa crus-galli); assay: Test A postemergence, visual plant response rating; conditions: for Barnyardgrass plant response rating (0 to 100 scale): 500 g ai/ha, postemergence, 0 is no effect, 100 is complete control; for Barnyardgrass plant response rating: Postemergence, 125 g ai/ha, 0 to 100 scale (0 no effect, 100 complete control)
Outline: as §1

[16] = system: ducksalad (Heteranhera limosa); assay: Test B flooded paddy test, visual plant response rating; conditions: 250 g ai/ha, Flood, applied to paddy water, 2-leaf stage, evaluated after 13 to 15 days
Outline: (§2)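 Greenhouse paddy conditions applied: two-leaf plants, a 3 cm flood above the soil surface maintained throughout, and compound added to the water rather than the foliage. Plants were judged visually against controls at 13 to 15 days.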

[17] = system: sedge, umbrella (small-flower umbrella sedge, Cyperus difformis); assay: as above; conditions: 250 g ai/ha, Flood, applied to paddy water, 2-leaf stage, evaluated after 13 to 15 days
Outline: as §2

rice (Oryza sativa) = assay: as above; conditions: 250 g ai/ha, Flood, applied to paddy water, 2-leaf stage, evaluated after 13 to 15 days
Outline: as §2

[18] = system: barnyardgrass (Echinochloa crus-galli); assay: as above; conditions: 250 g ai/ha, Flood, applied to paddy water, 2-leaf stage, evaluated after 13 to 15 days
Outline: as §2

Structure (SMILES) | Foxtail, Giant plant response rating [1] | Foxtail, Giant plant response rating (0 to 100 scale) [1] | Pigweed plant response rating [2] | Pigweed plant response rating (0 to 100 scale) [2] | Kochia plant response rating (kochia (Kochia scoparia) [3]) | Kochia plant response rating (0 to 100 scale) (kochia (Kochia scoparia) [3]) | Ryegrass, Italian plant response rating [4] | Ryegrass, Italian plant response rating (0 to 100 scale) [4] | Ragweed plant response rating [5] | Ragweed plant response rating (0 to 100 scale) [5] | Barnyardgrass plant response rating [6] | Barnyardgrass plant response rating (0 to 100 scale) [6] | Foxtail, Giant plant response rating (0 to 100 scale) [7] | Foxtail, Giant plant response rating [7] | Galium plant response rating (0 to 100 scale) [8] | Galium plant response rating [8] | Pigweed plant response rating (0 to 100 scale) [9] | Pigweed plant response rating [9] | Blackgrass plant response rating (0 to 100 scale) [10] | Blackgrass plant response rating [10] | further results
CON=C(c1cc(Cl)ccc1C(F)(F)F)c1c(O)c(C)nn(C)c1=O [Compound 97] | 80 | 90 | 40 | 90 | 20 | 50 | 80 | 100 | 60 | 100 | 70 | 90 | 80 | 70 | 90 | 70 | 80 | 80 | 90 | 70 | Kochia plant response rating (0 to 100 scale) (kochia (Kochia scoparia) [11]): 70; Kochia plant response rating (kochia (Kochia scoparia) [11]): 60; Ryegrass, Italian plant response rating (0 to 100 scale) [12]: 100; Ryegrass, Italian plant response rating [12]: 90; Corn plant response rating (0 to 100 scale) (corn (Zea mays)): 40; Corn plant response rating (corn (Zea mays)): 0; Ragweed plant response rating (0 to 100 scale) [13]: 80; Ragweed plant response rating [13]: 70; Wheat plant response rating (0 to 100 scale) [14]: 50; Wheat plant response rating [14]: 30; Barnyardgrass plant response rating (0 to 100 scale) [15]: 60; Barnyardgrass plant response rating [15]: 40; Plant response rating, Ducksalad (0 to 100 scale, 0 is no effect, 100 is complete control) [16]: 0; Plant response rating, Sedge, Umbrella (0 to 100 scale, 0 is no effect, 100 is complete control) [17]: 0; Plant response rating, Rice (0 to 100 scale, 0 is no effect, 100 is complete control) (rice (Oryza sativa)): 0; Plant response rating, Barnyardgrass (0 to 100 scale, 0 is no effect, 100 is complete control) [18]: 0
CON=C(c1c(O)c(C)nn(C)c1=O)c1cccc2cc(Br)ccc12 [Compound 100] | 60 | 100 | 90 | 100 | 10 | 60 | 50 | 100 | 100 | 100 | 50 | 80 | 80 | 70 | 90 | 90 | 90 | 90 | 90 | 90 | Kochia plant response rating (0 to 100 scale) (kochia (Kochia scoparia) [11]): 70; Kochia plant response rating (kochia (Kochia scoparia) [11]): 70; Ryegrass, Italian plant response rating (0 to 100 scale) [12]: 90; Ryegrass, Italian plant response rating [12]: 80; Corn plant response rating (0 to 100 scale) (corn (Zea mays)): 40; Corn plant response rating (corn (Zea mays)): 10; Ragweed plant response rating (0 to 100 scale) [13]: 100; Ragweed plant response rating [13]: 90; Wheat plant response rating (0 to 100 scale) [14]: 50; Wheat plant response rating [14]: 0; Barnyardgrass plant response rating (0 to 100 scale) [15]: 70; Barnyardgrass plant response rating [15]: 30; Plant response rating, Ducksalad (0 to 100 scale, 0 is no effect, 100 is complete control) [16]: 0; Plant response rating, Sedge, Umbrella (0 to 100 scale, 0 is no effect, 100 is complete control) [17]: 0; Plant response rating, Rice (0 to 100 scale, 0 is no effect, 100 is complete control) (rice (Oryza sativa)): 0; Plant response rating, Barnyardgrass (0 to 100 scale, 0 is no effect, 100 is complete control) [18]: 0
CON=C(c1c(Cl)ccc(C)c1F)c1c(O)c(C)nn(C)c1=O [Compound 101] | 0 | 10 | 0 | 10 | 0 | 10 | 0 | 40 | 20 | 70 | 0 | 10 | 20 | 0 | 80 | 80 | 40 | 10 | 30 | 0 | Kochia plant response rating (0 to 100 scale) (kochia (Kochia scoparia) [11]): 30; Kochia plant response rating (kochia (Kochia scoparia) [11]): 0; Ryegrass, Italian plant response rating (0 to 100 scale) [12]: 10; Ryegrass, Italian plant response rating [12]: 0; Corn plant response rating (0 to 100 scale) (corn (Zea mays)): 0; Corn plant response rating (corn (Zea mays)): 0; Ragweed plant response rating (0 to 100 scale) [13]: 60; Ragweed plant response rating [13]: 40; Wheat plant response rating (0 to 100 scale) [14]: 0; Wheat plant response rating [14]: 0; Barnyardgrass plant response rating (0 to 100 scale) [15]: 30; Barnyardgrass plant response rating [15]: 30; Plant response rating, Ducksalad (0 to 100 scale, 0 is no effect, 100 is complete control) [16]: 0; Plant response rating, Sedge, Umbrella (0 to 100 scale, 0 is no effect, 100 is complete control) [17]: 0; Plant response rating, Rice (0 to 100 scale, 0 is no effect, 100 is complete control) (rice (Oryza sativa)): 0; Plant response rating, Barnyardgrass (0 to 100 scale, 0 is no effect, 100 is complete control) [18]: 0
CON=C(c1cccc(C(F)(F)F)c1Cl)c1c(O)c(C)nn(C)c1=O [Compound 102] | 0 | 30 | 0 | 10 | 0 | 0 | 20 | 50 | 20 | 40 | 0 | 40 | 30 | 10 | 70 | 40 | 40 | 20 | 30 | 0 | Kochia plant response rating (0 to 100 scale) (kochia (Kochia scoparia) [11]): 20; Kochia plant response rating (kochia (Kochia scoparia) [11]): 20; Ryegrass, Italian plant response rating (0 to 100 scale) [12]: 30; Ryegrass, Italian plant response rating [12]: 0; Corn plant response rating (0 to 100 scale) (corn (Zea mays)): 0; Corn plant response rating (corn (Zea mays)): 0; Ragweed plant response rating (0 to 100 scale) [13]: 30; Ragweed plant response rating [13]: 10; Wheat plant response rating (0 to 100 scale) [14]: 30; Wheat plant response rating [14]: 0; Barnyardgrass plant response rating (0 to 100 scale) [15]: 30; Barnyardgrass plant response rating [15]: 20; Plant response rating, Ducksalad (0 to 100 scale, 0 is no effect, 100 is complete control) [16]: 0; Plant response rating, Sedge, Umbrella (0 to 100 scale, 0 is no effect, 100 is complete control) [17]: 0; Plant response rating, Rice (0 to 100 scale, 0 is no effect, 100 is complete control) (rice (Oryza sativa)): 0; Plant response rating, Barnyardgrass (0 to 100 scale, 0 is no effect, 100 is complete control) [18]: 0
